Experimental data published in patent US7485634B2, “Azepinoindole and pyridoindole derivatives as pharmaceutical agents” (Exelixis, Inc., priority 2002, dated 2009).
pEC50, pIC50: −log10 of the molar value. Like-named read-outs stand apart in the source and are kept apart here.

Molecular target: T1, farnesoid X receptor (Homo sapiens, UniProt Q96RI1)
T1 construct: fused on or other part: GST fused in frame to the N-terminus of the LBD (TR-FRET assay only); Nothing is fused on in the co-transfection assay
T1 sequence (Q96RI1 244-471 isoform Q96RI1-2 limits assumed): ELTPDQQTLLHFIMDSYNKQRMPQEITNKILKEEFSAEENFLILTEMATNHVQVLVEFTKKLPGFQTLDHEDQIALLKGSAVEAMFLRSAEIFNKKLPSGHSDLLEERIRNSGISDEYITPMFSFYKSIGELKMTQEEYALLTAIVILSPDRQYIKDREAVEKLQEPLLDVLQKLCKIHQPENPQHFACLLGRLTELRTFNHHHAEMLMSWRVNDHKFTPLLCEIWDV
Assay: one or more of the in vitro assays described herein (TR-FRET assay, Example 75; co-transfection assay, Example 76);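 further: TR-FRET assay or luciferase reporter in CV-1 monkey kidney cells co-transfected with human FXR and RXRα, dose-response over 8 half-log concentrations, CDCA added in antagonist mode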
Conditions: for Emax: read-out: efficacy; for inhibition: 100% = baseline (DMSO only)

[1] = one or more of the in vitro assays, read-out: EC50 (agonist / partial agonist)
[2] = relative to maximum response of chenodeoxycholic acid (CDCA)
[3] = inhibition of the activity of CDCA
[4] = inhibition of the activity of CDCA, read-out: IC50 (antagonist / partial agonist)

Procedure: (Wallac/PE Life Sciences, Cat# AD0059A) in FRET assay buffer (20 mM KH2PO4/K2HPO4 (pH 7.3), 150 mM NaCl, 2 mM CHAPS, 2 mM EDTA, 1 mM DTT) in the presence of the test compound(s) for 2-4 hours at room temperature in a 384 well assay plate. Data was collected using an LJL Analyst using the standard operating instructions and conditions with readings at emission wavelengths of 615 nm and 665 nm after a delay of 65 ps and an excitation wavelength of 330 nm.
The basic co-transfection protocol for measuring the farnesoid X receptor activity is as follows. CV-1 African Green Monkey Kidney cells were plated 24 hours before transfection to achieve approximately 70-80 percent confluency. Cells were transfected with the following expression vectors, CMX-farnesoid X receptor (full length human farnesoid X receptor), CMX-RXRα (full length human RXR), Luc12 (ECREx7-Tk-Luciferase) luciferase reporter gene construct. […] A CMX-β-Galactosidase expression vector was used as a transfection control. The transfection reagent used was DOTAP (Boehringer Mannheim). Cells were incubated with the DOTAP/DNA mixture for 5 hours after which the cells were harvested and plated onto either 96 well or 384 well plates containing the appropriate concentration of test compound. The assay was allowed to continue for an additional 18-20 hours, after which the cells were lysed, with lysis buffer (1% triton X 100, 10% glycerol, 5 mM Dithiothreitol, 1 mM EGTA, 25 mM Tricine, pH 7.8) and the luciferase activity measured in the presence of Luciferase assay buffer (0.73 mM ATP, 22.3 mM Tricine, 0.11 mM EGTA, 0.55 mM Luciferin, 0.15 mM Coenzyme A, 0.5 mM HEPES, 10 mM Magnesium sulphate) on a standard luminomter plate reader (PE Biosystems, NorthStar Reader), using recommended operating instructions and conditions.
Both the farnesoid X receptor/ECREx7 co-transfection assay (Example 76) and the TR-FRET assay (Example 75) can be used to establish the EC50/IC50 values for potency and percent activity or inhibition for efficacy. Efficacy defines the activity of a compound relative to a high control (chenodeoxycholic acid, CDCA) or a low control (DMSO/vehicle). The dose response curves are generated from an 8 point curve with concentrations differing by ½ LOG units. Each point represents the average of 4 wells of data from a 384 well plate. The curve for the data is generated by using the equation: Y=Bottom+(Top−Bottom)/(1+10^((LogEC50−X)*HillSlope))
The EC50/IC50 is therefore defined as the concentration at which an agonist or antagonist elicits a response that is half way between the Top (maximum) and Bottom (baseline) values. The EC50/IC50 values represented are the averages of at least 3 independent experiments. The determination of the relative efficacy or % control for an agonist is by comparison to the maximum response achieved by chenodeoxycholic acid that is measured individually in each dose response experiment.
For the antagonist assay, CDCA is added to each well of a 384 well plate to elicit a response. The % inhibition for each antagonist is therefore a measurement of the inhibition of the activity of CDCA.

Compound | pEC50 [1] | Emax [2] | inhibition [3] | pIC50 [4] | pEC50 | pIC50 | Emax
CCOC(=O)C1=CN(C(=O)c2ccc(F)c(F)c2)CC2(CCCC2)c2c1[nH]c1ccccc21 [3-(3,4-difluorobenzoyl)-1,1-tetramethylene-1,2,3,6-tetrahydroazepino[4,5-b]indole-5-carboxylic acid ethyl ester] | > 7.00 | > 100% | – | – | – | – | –
CCOC(=O)C1=CN(C(=O)c2ccc(F)cc2)CC(C)(C)c2c1[nH]c1cc(N(C)C(=O)NCc3ccccn3)ccc21 [3-(4-fluorobenzoyl)-1,1-dimethyl-8-(1-methyl-3-pyridin-2-ylmethylureido)-1,2,3,6-tetrahydroazepino[4,5-b]indole-5-carboxylic acid ethyl ester] | – | – | 100% | > 7.00 | – | – | –
CCOC(=O)C1=CN(C(=O)c2ccc(F)cc2)CC(C)(C)c2c1[nH]c1cc(OC(=O)NCCc3ccccn3)ccc21 [3-(4-fluorobenzoyl)-1,1-dimethyl-8-(2-pyridin-2-yl-ethylcarbamoyloxy)-1,2,3,6-tetrahydroazepino[4,5-b]indole-5-carboxylic acid ethyl ester] | > 6.70 | 10 to 30% | – | > 6.70 | – | – | –
CCOC(=O)C1=CN(C(=O)c2ccc(F)cc2)CC(C)(C)c2c1[nH]c1cc(OC(=O)NCc3cnc(C)cn3)ccc21 [3-(4-fluorobenzoyl)-1,1-dimethyl-8-(5-methylpyrazin-2-ylmethylcarbamoyloxy)-1,2,3,6-tetrahydroazepino[4,5-b]indole-5-carboxylic acid ethyl ester] | > 6.70 | 10 to 30% | – | > 6.70 | – | – | –
CCOC(=O)C1=CN(C(=O)c2ccc(F)cc2)CC(C)(C)c2c1[nH]c1cc(OC(=O)NCc3ccccn3)ccc21 [3-(4-fluorobenzoyl)-1,1-dimethyl-8-(pyridin-2-yl-methylcarbamoyloxy)-1,2,3,6-tetrahydroazepino[4,5-b]indole-5-carboxylic acid ethyl ester] | – | – | – | – | > 6.70 | > 6.70 | 10 to 30%
CCOC(=O)C1=CN(C(=O)c2ccc(F)cc2)CC(C)(C)c2c1[nH]c1cc(OC(=O)NCc3cccnc3)ccc21 [3-(4-fluorobenzoyl)-1,1-dimethyl-8-(pyridin-3-ylmethylcarbamoyloxy)-1,2,3,6-tetrahydroazepino[4,5-b]indole-5-carboxylic acid ethyl ester] | > 6.70 | 10 to 30% | – | > 6.70 | – | – | –
CCOC(=O)C1=CN(C(=O)c2ccc(F)cc2)CC(C)(C)c2c1[nH]c1cc(OC(=O)NCc3cccs3)ccc21 [3-(4-fluorobenzoyl)-1,1-dimethyl-8-(thiophen-2-ylmethylcarbamoyloxy)-1,2,3,6-tetrahydroazepino[4,5-b]indole-5-carboxylic acid ethyl ester] | – | – | 100% | > 7.00 | – | – | –
CCOC(=O)C1=CN(C(=O)c2ccc(F)cc2)CC(C)(C)c2c1[nH]c1cc(OC(=O)NC(C)C)ccc21 [3-(4-fluorobenzoyl)-1,1-dimethyl-8-isopropylcarbamoyloxy-1,2,3,6-tetrahydroazepino[4,5-b]indole-5-carboxylic acid ethyl ester] | – | – | 100% | > 7.00 | – | – | –
CC1Cc2c([nH]c3ccccc23)C(C(=O)NC2CCC2)=CN1C(=O)c1ccc(F)cc1 (stereo not drawn) [3-(4-fluorobenzoyl)-2-methyl-1,2,3,6-tetrahydroazepino[4,5-b]indole-5-carboxylic acid cyclobutylamide] | > 7.00 | > 100% | – | – | – | – | –
CCOC(=O)C1=CN(C(=O)c2ccc(F)cc2)CC(C)(C)c2c1[nH]c1cc(N(C)C(=O)NC3CC3)ccc21 [8-(3-cyclopropyl-1-methylureido)-3-(4-fluorobenzoyl)-1,1-dimethyl-1,2,3,6-tetrahydroazepino[4,5-b]indole-5-carboxylic acid ethyl ester] | – | – | 100% | > 7.00 | – | – | –
CCOC(=O)C1=CN(C(=O)c2ccc(F)cc2)CC(C)(C)c2c1[nH]c1cc(OC(=O)NC3CCCCC3)ccc21 [8-cyclohexylcarbamoyloxy-3-(4-fluorobenzoyl)-1,1-dimethyl-1,2,3,6-tetrahydroazepino[4,5-b]indole-5-carboxylic acid ethyl ester] | > 6.70 | 10 to 30% | – | > 6.70 | – | – | –
